Test results: EP0533352A2 (LYNXVALE LIMITED, priority 1991, dated 1993)
Like-named read-outs stand apart in the source and are kept apart here.

What was measured:
[1] = system: Rabbit urinary bladder smooth muscle strips; experiment: Nerve mediated contractions of rabbit urinary bladder muscle strips induced by electrical field stimulation; assay type: cell-based; conditions: for effect on the frequency response curve: 1 to 40 Hz
[2] = system: carbachol (5x10⁻⁶M) induced muscle contraction; experiment: Carbachol mediated muscle contractions of rabbit bladder muscle strips; assay type: cell-based; conditions: GABA: 10 strips, not in 6 strips, baclofen: 6 strips, not in 3 strips

`NC1=N[C@H](O)[C@H]2[C@H]3O[C@]4(O)O[C@@H]([C@@H](O)[C@@]2(N1)[C@@H]4O)[C@]3(O)CO` [tetrodotoxin] was tested, and the “effect on contractions obtained by electrical field stimulation” value [1] was “abolishing the contractions”.
For `NCC(O)(CS(=O)(=O)O)c1ccc(Cl)cc1` (centres unmarked) [2-hydroxysaclofen], the “antagonism of the inhibition produced by GABA (change of EC₅₀)” value [1] was “significant antagonism” and the “change in the maximum response of GABA” value [1] was “no significant difference”.
For `NCCCP(O)O` [3-aminopropylphosphonous acid], the EC50 ([1]; Oryctolagus cuniculus, average over seven experiments, preliminary experiments, read-out: EC₅₀ for inhibition of electrically stimulated contraction) was 250 ± 160 nM and the “maximum inhibition of muscle contraction induced by electrical field stimulation” value ([1]; percentage inhibition of control contraction, 10 Hz, 0.2 ms pulse width, 30V for 3 s, mean ± S.E.M.) was 45 ± 18%.
With `NCC(CC(=O)O)c1ccc(Cl)cc1` (racemic) [(±) baclofen] the “inhibition of carbachol induced muscle contraction” value [2] was “able to inhibit the muscle contraction”, the “EC₅₀ for inhibition of muscle contraction induced by electrical field stimulation” value [1] was 7.26 (±1.2)x10⁻⁶ M and the “maximum inhibition of muscle contraction induced by electrical field stimulation” value [1] was 26.5(±1.58) %. For the same molecule, the “effect on the frequency response curve” value ([1]; 1x10⁻⁴M baclofen, n=13) was “significant inhibitory effect”.
`NCCCC(=O)O` [GABA, gamma amino butyric acid] was tested, and the “effect on the frequency response curve” value ([1]; 1x10⁻⁵ GABA, n=15) was “significant right shift”.
`NCc1cc(=O)[nH]o1` [Muscimol, muscimol] was tested, and the “inhibitory effect on nerve mediated muscle contraction” value ([1]; concentration range of 1x10⁻⁸ to 1x10⁻⁵M, n=5) was “no inhibitory effect”.
